Laboratory results reported in ChEMBL document CHEMBL2321772 (J Med Chem, 2013).

Experiments:
[1] = physchem; settings: octanol/water
[2] = Intrinsic clearance in rat hepatocytes assessed per million of cells; type: ADME, cell-based, Hepatocyte; settings: read-out: CLH
[3] = Volume of distribution at steady state in dog; type: ADME, organism-based, Canis lupus familiaris; settings: in vivo, read-out: Vdss
[4] = in vitro; settings: human, hepatocytes
[5] = Half life in mouse; type: ADME, organism-based; settings: in vivo
[6] = Clearance in mouse; type: ADME, organism-based; settings: in vivo
[7] = Intrinsic clearance in dog hepatocytes assessed per million of cells; type: ADME, cell-based, Canis lupus familiaris, Hepatocyte; settings: read-out: CLH
[8] = Oral bioavailability in rat; type: ADME, organism-based; settings: in vivo
[9] = Intrinsic clearance in mouse hepatocytes assessed per million of cells; type: ADME, cell-based, Hepatocyte; settings: read-out: CLH
[10] = Oral bioavailability in dog; type: ADME, organism-based, Canis lupus familiaris; settings: in vivo
[11] = Clearance in rat; type: ADME, organism-based; settings: in vivo
[12] = Half life in dog; type: ADME, organism-based, Canis lupus familiaris; settings: in vivo
[13] = Half life in rat; type: ADME, organism-based; settings: in vivo
[14] = Oral bioavailability in mouse; type: ADME, organism-based; settings: in vivo

Compound | logD [1] | further results
C[C@@H](NC(=O)C1(N)CCN(c2ncnc3[nH]ccc23)CC1)c1ccc(Cl)cc1 | 3.3 | 
C[C@H](NC(=O)C1(N)CCN(c2ncnc3[nH]ccc23)CC1)c1ccc(Cl)cc1 | 2.7 | 
NC1(C(=O)NCc2ccc(Cl)cc2)CCN(c2ncnc3[nH]ccc23)CC1 |  | hepatocyte CLint [2]: 19 µL/min/1e6 cells; Vd [3]: 0.6 L/kg; hepatocyte CLint [4]: 15 µL/min/1e6 cells; half-life [5]: 0.8 h; clearance [6]: 42 mL/min/kg; hepatocyte CLint [7]: 6 µL/min/1e6 cells; bioavailability [8]: 56%; hepatocyte CLint [9]: 10 µL/min/1e6 cells; bioavailability [10]: 70%; clearance [11]: 48 mL/min/kg; half-life [12]: 3 h; half-life [13]: 2.3 h; bioavailability [14]: 88%
NC1(C(=O)N[C@@H](CCN2CCCCC2)c2ccc(Cl)cc2)CCN(c2ncnc3[nH]ccc23)CC1 (racemic) | 2.4 | 
NC(=O)C(NC(=O)C1(N)CCN(c2ncnc3[nH]ccc23)CC1)c1ccc(Cl)cc1 (racemic) | 2.2 | 
CC(=O)NCC(NC(=O)C1(N)CCN(c2ncnc3[nH]ccc23)CC1)c1ccc(Cl)cc1 (racemic) | 2.4 | 
NC1(C(=O)NC(CS(N)(=O)=O)c2ccc(Cl)cc2)CCN(c2ncnc3[nH]ccc23)CC1 (racemic) | 2.2 | 
CS(=O)(=O)NCCC(NC(=O)C1(N)CCN(c2ncnc3[nH]ccc23)CC1)c1ccc(Cl)cc1 (racemic) | 2.2 | 
NC1(C(=O)NC(CO)c2ccc(Cl)cc2)CCN(c2ncnc3[nH]ccc23)CC1 (racemic) | 2.4 | 
COCCC(NC(=O)C1(N)CCN(c2ncnc3[nH]ccc23)CC1)c1ccc(Cl)cc1 (racemic) | 3 | 
CCC(NC(=O)C1(N)CCN(c2ncnc3[nH]ccc23)CC1)c1ccc(Cl)cc1 (racemic) | 3.5 | 
NC1(C(=O)NC(c2ccccc2)c2ccc(Cl)cc2)CCN(c2ncnc3[nH]ccc23)CC1 (racemic) | 4.1 | 
CC(NC(=O)C1(N)CCN(c2ncnc3[nH]ccc23)CC1)c1ccccc1 (racemic) | 2.2 | 
CC(NC(=O)C1(N)CCN(c2ncnc3[nH]ccc23)CC1)c1ccc(F)cc1 (racemic) | 2.4 | 
CC(NC(=O)C1(N)CCN(c2ncnc3[nH]ccc23)CC1)c1ccc(S(C)(=O)=O)cc1 (racemic) | 1 | 
NC1(C(=O)NC(CCCN2CCCC2)c2ccc(Cl)cc2)CCN(c2ncnc3[nH]ccc23)CC1 (racemic) | 1.3 | 
CC(NC(=O)C1(N)CCN(c2ncnc3[nH]ccc23)CC1)c1ccc(Cl)cc1 (racemic) | 2.7 | 

More lines, main results first:

logD [1] | Compound | further results
2.4 | CN(C)C(=O)CC(NC(=O)C1(N)CCN(c2ncnc3[nH]ccc23)CC1)c1ccc(Cl)cc1 (racemic) | 
2.1 | CS(=O)(=O)NCC(NC(=O)C1(N)CCN(c2ncnc3[nH]ccc23)CC1)c1ccc(Cl)cc1 (racemic) | 
2.8 | NC1(C(=O)NC(CCCO)c2ccc(Cl)cc2)CCN(c2ncnc3[nH]ccc23)CC1 (racemic) | 
3.4 | NC1(C(=O)NC(c2ccc(Cl)cc2)C2CC2)CCN(c2ncnc3[nH]ccc23)CC1 (racemic) | 
1.3 | CC(NC(=O)C1(N)CCN(c2ncnc3[nH]ccc23)CC1)c1ccccn1 (racemic) | 
1.8 | COc1ccc(C(C)NC(=O)C2(N)CCN(c3ncnc4[nH]ccc34)CC2)cc1OC (racemic) | 
1.4 | CN(C)CCCC(NC(=O)C1(N)CCN(c2ncnc3[nH]ccc23)CC1)c1ccc(Cl)cc1 (racemic) | 
2.7 | NC1(C(=O)NC(CCCN2CCOCC2)c2ccc(Cl)cc2)CCN(c2ncnc3[nH]ccc23)CC1 (racemic) | 
